Laboratory results reported in US20260335456A1, “ANTIBODY-DRUG CONJUGATE HAVING CAMPTOTHECIN-BASED DRUG LINKED TO ANTIBODY HAVING LOW ANTIGEN-BINDING AFFINITY THROUGH LINKER” (PINOTBIO, INC., priority 2022, published 2026).

Experiments:
A549 = assay: Cell viability assay in A549; type: cell-based; details: for efficacy / IC50 in ABCG2-overexpressing cells: A549, FIG. 9
Experimental: (§1) After 24 hours, 100 μL of the drug at 9 concentrations (serial dilution of 1/5 from 1,000 nM) was treated with the cells. […] In this case, a control group that was not treated with the drug (drug concentration 0) was also prepared. It was cultured at constant temperature (37 °C, 5% CO2) for 3 or 6 days. 100 μL of CellTiter-Glo reagent (using CellTiter-Glo® Luminescent Cell Viability Assay kit (Promega, G7571)) was added to each well and pipetted. After incubation at constant temperature (RT) for 10 minutes, luminescence was measured.

DDX5 protein = DDX5 protein (Homo sapiens, UniProt P17844); assay: DDX5 degradation by camptothecin drugs; type: cell-based; details: FIGS. 7 to 10
Sequence of DDX5 protein (P17844 whole entry): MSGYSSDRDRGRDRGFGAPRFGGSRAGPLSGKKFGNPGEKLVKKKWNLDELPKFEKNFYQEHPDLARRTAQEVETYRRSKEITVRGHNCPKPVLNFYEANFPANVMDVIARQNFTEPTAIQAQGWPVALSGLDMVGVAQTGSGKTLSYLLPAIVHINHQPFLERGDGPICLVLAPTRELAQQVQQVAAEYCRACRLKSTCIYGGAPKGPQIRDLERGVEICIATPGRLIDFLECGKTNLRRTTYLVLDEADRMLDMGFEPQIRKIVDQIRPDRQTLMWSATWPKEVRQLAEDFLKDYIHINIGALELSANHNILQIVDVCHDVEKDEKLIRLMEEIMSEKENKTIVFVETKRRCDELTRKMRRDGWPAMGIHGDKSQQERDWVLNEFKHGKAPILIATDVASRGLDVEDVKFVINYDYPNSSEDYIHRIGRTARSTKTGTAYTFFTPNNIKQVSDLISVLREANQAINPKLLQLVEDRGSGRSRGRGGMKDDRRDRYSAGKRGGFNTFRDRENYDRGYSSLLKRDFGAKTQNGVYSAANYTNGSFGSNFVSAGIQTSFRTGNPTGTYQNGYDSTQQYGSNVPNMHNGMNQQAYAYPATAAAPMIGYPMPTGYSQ

[1] = Lactone to carboxylate form conversion in pH 7.4; type: physicochemical; details: for rate of conversion from lactone to carboxylate form / degraded at 3 µM: pH 7.4, 37 °C; for degraded at 3 µM: PBS with 10% DMSO, read-out: carboxylate form formed; for lactone to carboxylate conversion versus reference compounds: pH 7.4, reference: exatecan, DXd, SN-38, FL118
Experimental: 3-2. Lactone to Carboxylate Form Conversion in pH 7.4
Afterwards, it was centrifuged at 4 °C, 2 minutes, and 13,000 RCF conditions, and the supernatant was used as a sample.
The column used was Cortecs C18 2.7 μm, 4.6×50 mm Column, and analysis was conducted under the following conditions. 1) 20 minutes: 5% B, 2) sample injection, 3) 2 minutes: 5% B, 4) 10 minutes: 5% B→50% B, 5) 1 minute: 50% B.
In order to measure changes over time, the sample chamber was maintained at 37 °C, and the sample was set to be injected every measurement time. The measurement times were 0, 20, 40, 60, 90, 120, 180, 240, 300, 360, 480, 600 and 720 minutes.
The content was calculated from the peak area of each lactone and carboxylate. Since the absorption coefficients of lactone and carboxylate are different, the lactone area was obtained by multiplying the carboxylate area by the equation below.

ABCG2 = molecular target: T1, ABCG2 (Homo sapiens, UniProt Q9UNQ0); assay: Sensitivity to ABCG2 transporter; type: cell-based
T1 sequence (Q9UNQ0 1-655): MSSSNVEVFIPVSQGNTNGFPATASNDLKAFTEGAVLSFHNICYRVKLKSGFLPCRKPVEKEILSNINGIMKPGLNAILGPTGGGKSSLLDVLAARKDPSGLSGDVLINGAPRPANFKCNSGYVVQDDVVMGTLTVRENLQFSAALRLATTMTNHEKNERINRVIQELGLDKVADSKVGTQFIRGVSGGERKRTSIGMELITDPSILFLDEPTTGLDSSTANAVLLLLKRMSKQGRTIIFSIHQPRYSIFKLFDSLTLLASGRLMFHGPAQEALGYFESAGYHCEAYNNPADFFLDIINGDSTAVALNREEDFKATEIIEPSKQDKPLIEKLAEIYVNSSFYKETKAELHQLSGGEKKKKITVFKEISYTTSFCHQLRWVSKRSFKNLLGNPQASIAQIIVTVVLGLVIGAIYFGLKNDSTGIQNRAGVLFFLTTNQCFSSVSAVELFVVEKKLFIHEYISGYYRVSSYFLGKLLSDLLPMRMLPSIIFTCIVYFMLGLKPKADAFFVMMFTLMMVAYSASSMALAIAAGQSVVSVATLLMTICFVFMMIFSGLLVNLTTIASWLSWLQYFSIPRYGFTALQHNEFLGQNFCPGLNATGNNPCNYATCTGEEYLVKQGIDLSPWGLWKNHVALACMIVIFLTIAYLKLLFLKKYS

various cancer cells = details: resistance due to expression of P-glycoprotein; cited from earlier work
in vitro cytotoxicity = assay: In vitro cytotoxicity of FL118, exatecan versus SN-38; type: cell-based; details: FIG. 5
DNA topoisomerase I = DNA topoisomerase I (Homo sapiens, UniProt P11387); details: versus SN-38 and topotecan; cited from earlier work
Sequence of DNA topoisomerase I (P11387 whole entry): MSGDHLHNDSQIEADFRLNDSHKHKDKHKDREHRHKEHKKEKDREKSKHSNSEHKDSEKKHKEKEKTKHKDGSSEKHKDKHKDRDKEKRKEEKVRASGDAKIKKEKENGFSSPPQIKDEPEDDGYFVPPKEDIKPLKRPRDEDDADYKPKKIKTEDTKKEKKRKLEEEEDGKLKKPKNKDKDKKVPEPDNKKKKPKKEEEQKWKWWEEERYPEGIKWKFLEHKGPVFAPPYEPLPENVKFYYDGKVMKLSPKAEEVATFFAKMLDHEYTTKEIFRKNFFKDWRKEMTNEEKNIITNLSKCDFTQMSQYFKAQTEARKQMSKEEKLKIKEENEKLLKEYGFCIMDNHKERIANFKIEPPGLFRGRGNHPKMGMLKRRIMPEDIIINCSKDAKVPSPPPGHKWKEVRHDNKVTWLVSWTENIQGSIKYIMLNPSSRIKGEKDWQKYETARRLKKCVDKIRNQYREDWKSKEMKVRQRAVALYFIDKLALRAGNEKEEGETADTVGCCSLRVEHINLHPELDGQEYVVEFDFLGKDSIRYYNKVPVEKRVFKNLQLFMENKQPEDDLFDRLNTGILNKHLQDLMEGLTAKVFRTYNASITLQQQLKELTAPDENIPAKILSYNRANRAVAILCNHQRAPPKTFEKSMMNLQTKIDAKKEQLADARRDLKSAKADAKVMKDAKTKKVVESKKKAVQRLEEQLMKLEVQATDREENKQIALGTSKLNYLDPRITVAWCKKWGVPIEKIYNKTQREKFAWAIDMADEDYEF

[2] = system: HCT-8 and FaDu cell lines; assay: Western blot of anti-apoptotic proteins in HCT-8 and FaDu; type: cell-based; details: FIG. 6
Source text: GAPDH is an enzyme involved in glycolysis, which is an essential metabolic process in cells.

FaDu = assay: Cell viability assay in FaDu; type: cell-based
Experimental: as §1

[3] = system: wide range of cancer cell lines; details: Lee et al.; cited from earlier work
patients = details: domestic clinical studies; cited from earlier work
[4] = Kim et al.; doses 10 times higher than the clinically applicable dose; cited from earlier work
A549 cell line = assay: Western blot of DDX5 and anti-apoptotic proteins in A549; type: cell-based; details: for DDX5 degradation ranking: FaDu and A549, 0, 10, 100 nM
FaDu cell line = assay: Western blot of DDX5 and anti-apoptotic proteins in FaDu; type: cell-based; details: 0, 10, 100 nM; for DDX5 degradation ranking: FaDu and A549; for expression of anti-apoptotic proteins: Survivin, cIAP2, Mcl-1, XIAP, 24 hours
Experimental: 1-1: Confirmation of Suppressive Activity of Expression of Cancer-Related Survival Genes of DDX5, Survivin, Mcl-1, XIAP and cIAP2 Through Western Blot
200,000 FaDu cell lines were seeded per well in a 6-well plate and incubated at constant temperature (37 °C, 5% CO2). […] It was incubated at constant temperature (37 °C, 5% CO2) for 24 hours. The well was treated with 100 μL of RIPA buffer dissolved in protease inhibitor cocktail. […] Protein concentration was determined through protein assay.
Electrophoresis was performed on the gel at 60V.
7 sheets of activated filter paper, PVDF membrane, gel and 7 sheets of filter paper were placed in order in the cassettes of the Trans-Blot® Turbo™ Transfer System, and the lid was closed, and after being inserted into the machine, the protocol started.
The transferred membrane was immersed in blocking buffer and incubated at constant temperature (RT, 1h). Next, it was incubated at 4 °C overnight in primary antibody solution. It was rinsed with TBST buffer for 3 minutes (repeated 3 times). Incubation was performed (RT, 1h) in a secondary antibody solution conjugated with HRP. It was rinsed with TBST buffer for 3 minutes (repeated 3 times).
After soaking the membrane in the ECL substrate for 3 to 5 minutes, the signal was determined by using the ChemiDoc™ MP Imaging System.

several cell lines = details: cited from earlier work
MDA-MB-468 tumor model = assay: In vivo efficacy in MDA-MB-468 model (EGFR ADCs); set-up: species or system mouse
Experimental: Cells growing in exponential growth phase were harvested and counted for tumor inoculation.
MDA-MB-468 cells (1×10^7) in 0.2 mL of DPBS with Matrigel were inoculated subcutaneously into the right anterior flank of each mouse. When the average tumor volume reached approximately 215 mm^3, animals were randomly grouped, and then, treatment for drug efficacy studies was initiated.
During routine monitoring, normal behavior such as mobility, food and water consumption (observation only), body weight changes (weighed twice weekly), eye/hair mailing, tumor growth and effectiveness of treatment were checked in animals every day. Deaths and observed clinical signs were recorded based on the number of animals in each subset.
The primary endpoint was determined as a time point when tumor growth could be delayed or the mice could be cured. The two-dimensional size of the tumor was measured twice weekly using a caliper, and the volume was expressed in mm^3 using the equation (V=0.5 a×b^2, where a and b are the long and short diameters of the tumor, respectively).
Tumor growth inhibition (TGI) was calculated for each group.
TGI (%)=[1−(Ti/T0)/(Vi/V0)]×100 […]

[5] = system: cancer cell line Xenograft models; details: cited from earlier work
rats and beagle dogs = assay: FL118 GLP-toxicity tests; type: in vivo; details: GLP-toxicity tests in rats and beagle dogs
Source text: (§2) Meanwhile, camptothecin-based anticancer drugs show excellent anticancer responses initially when used in patients, but strong resistance to these drugs appears through Epigenetic Silencing of the Top1 gene and Top2 Dependence of cancer cells.

[6] = system: cancer cell line Xenograft models; assay: FL118 xenograft and human tumor animal model efficacy; type: in vivo
Source text: Genetic manipulation of DDX5 in PDAC cells affects tumor growth.
as §2

[7] = FL118 pharmacokinetics and tumor accumulation; type: in vivo
Source text: For example, when applying ADC, maximum selectivity between tumor tissue and normal tissue is ensured.

PDAC cells with DDX5 KO = details: cited from earlier work

With `CC[C@@]1(O)C(=O)OCc2c1cc1n(c2=O)Cc2c-1nc1cc(F)c(C)c3c1c2[C@@H](NC(=O)CO)CC3` [Dxd, reference compound] the “efficacy / IC50 in ABCG2-overexpressing cells” value (A549) was “increased IC50 values”, the “DDX5 degradation mechanism of action” value (DDX5 protein) was “exerts a mechanism of action (MoA) to degrade DDX5 protein” and the “rate of conversion from lactone to carboxylate form” value [1] was 0.6 % per minute. For the same molecule, the degraded at 3 µM [1] was 76.5% and the “sensitivity to ABCG2” value (ABCG2) was “strongly influenced by ABCG2”.

In the case of `CC[C@@]1(O)C(=O)OCc2c1cc1n(c2=O)Cc2c-1nc1cc(F)c(C)c3c1c2[C@@H](N)CC3` [Exatecan], the “effect on cancer cells resistant to SN-38 and other drugs” value (various cancer cells) is given as “effective against cancer cells that are resistant to SN-38”, the “in vitro cytotoxicity versus SN-38” value (in vitro cytotoxicity) is given as “better efficacy against in vitro cytotoxicity compared to SN-38” and the “type I topoisomerase inhibitory activity” value (DNA topoisomerase I) is given as “stronger type I topoisomerase inhibitory activity than SN-38”. For the same molecule, the “downregulating tumor proteins versus SN-38” value [2] was “better efficacy in downregulating tumor proteins compared to the SN-38 drug”, the “DDX5 degradation mechanism of action” value (DDX5 protein) was “exerts a mechanism of action (MoA) to degrade DDX5 protein” and the “sensitivity to ABCG2” value (ABCG2) was “almost unaffected by ABCG2”.

In the case of `CC[C@@]1(O)C(=O)OCc2c1cc1n(c2=O)Cc2c-1nc1cc3c(c4c1c2[C@@H](NC(=O)[C@@H](O)C1CC1)CC4)OCO3` [PBX-7024], the “efficacy / IC50 in ABCG2-overexpressing cells” value (A549) is reported as “still maintained strong efficacy”, the apoptosis effect (A549; A549, overexpresses ABCG2, 3 days) is reported as “strong apoptosis effect” and the “IC50 compared to Dxd” value (A549; FaDu and A549, 3 days, FIG. 9) is reported as “IC50 of an equal or higher level compared to Dxd”. For the same molecule, the “lactone to carboxylate conversion versus reference compounds” value [1] was “faster and at a higher rate than other reference compounds”, the “IC50 compared to Dxd” value (FaDu; 3 days, FIG. 9) was “IC50 of an equal or higher level compared to Dxd” and the apoptosis effect (FaDu; does not express ABCG2, 3 days) was “strong apoptosis effect”. For the same molecule, the “sensitivity to ABCG2” value (ABCG2) was “not affected by ABCG2”.

In the case of `CC[C@@]1(O)C(=O)OCc2c1cc1n(c2=O)Cc2c-1nc1ccccc1c2CCNC(C)C` [CKD-602], the “anticancer effects versus camptothecin and topotecan” value [3] is given as “superior anticancer effects compared to camptothecin and topotecan”, the “side effects in clinical studies” value (patients) is given as “only reversible and controllable side effects such as neutropenia and leukopenia” and the adverse drug reactions [4] is given as “no adverse drug reactions other than increased gastric secretion”.

For `CC[C@@]1(O)C(=O)OCc2c1cc1n(c2=O)Cc2c-1nc1cc3c(c4c1c2[C@@H](NC(=O)CO)CC4)OCO3` [PBX-7014], the “dual mechanism (topoisomerase I inhibition and DDX5 degradation)” value (A549 cell line) was “dual MoA that acts as a degrader of DDX5 (p68)”, the DDX5 degradation ranking (A549 cell line) was “followed by 7011, 7016 and 7014” and the “rate of conversion from lactone to carboxylate form” value [1] was 0.8 % per minute. For the same molecule, the degraded at 3 µM [1] was over 86%, the “lactone to carboxylate conversion versus reference compounds” value [1] was “faster and at a higher rate than other reference compounds” and the DDX5 degradation ranking (FaDu cell line) was “followed by 7011, 7016 and 7014”. The “expression of anti-apoptotic proteins” value (FaDu cell line) was “decrease in the expression of Survivin, cIAP2, Mcl-1 and XIAP as the concentration increased”.

For `CCc1c2c(nc3ccc(O)cc13)-c1cc3c(c(=O)n1C2)COC(=O)[C@]3(O)CC` [SN-38], the IC50 (several cell lines) is listed as “nanomolar range” and the “sensitivity to ABCG2” value (ABCG2) is listed as “show resistance in the way that the drug is released out of the cell due to overexpression of the ABCG2 Transporter”.

In the case of “Nimotuzumab-CL2A-FL118: nimotuzumab ADC with CL2A-FL118 (Example 4)”, the efficacy (MDA-MB-468 tumor model; 1 mpk, 5 mpk and 10 mpk, versus cetuximab-based ADC) is reported as “better efficacy” and the “in vivo efficacy versus Cetuximab-CL2A-FL118” value (MDA-MB-468 tumor model; FIG. 22) is reported as “better efficacy compared to Cetuximab-CL2A-FL118”.

In the case of `CC[C@@]1(O)C(=O)OCc2c1cc1n(c2=O)Cc2c-1nc1cc3c(c4c1c2[C@@H](N)CC4)OCO3` (single isomer, unassigned) [PBX-7011], the DDX5 degradation ranking (A549 cell line) is reported as “followed by 7011, 7016 and 7014”, the DDX5 degradation ranking (FaDu cell line) is reported as “followed by 7011, 7016 and 7014” and the “expression of anti-apoptotic proteins” value (FaDu cell line) is reported as “decrease in the expression of Survivin, cIAP2, Mcl-1 and XIAP as the concentration increased”.

In the case of `CC[C@@]1(O)C(=O)OCc2c1cc1n(c2=O)Cc2cc3cc4c(cc3nc2-1)OCO4` [FL118, 10, 11-methylenedioxy-camptothecin], the “in vitro cytotoxicity versus SN-38” value (in vitro cytotoxicity) is listed as “better efficacy against in vitro cytotoxicity compared to SN-38”, the DDX5 degradation ranking (A549 cell line) is listed as “superior to other substances” and the “efficacy in eliminating human PDAC and CRC tumors, high DDX5 expression” value ([5]; high DDX5 expression) is listed as “high efficacy”. For the same molecule, the “efficacy in PDAC and CRC tumors, low DDX5 expression” value ([5]; low DDX5 expression) was “less effective”, the “downregulating tumor proteins versus SN-38” value [2] was “better efficacy in downregulating tumor proteins compared to the SN-38 drug” and the safety (rats and beagle dogs) was “excellent safety”. The “xenograft efficacy, Top1 not expressed” value ([6]; Epigenetic Silencing or Knock-out of Top1) was “strong efficacy”, the “anticancer efficacy after SN-38 resistance” value ([6]; after inducing SN-38 resistance in tumor xenograft) was “strong anticancer efficacy” and the tumor regression efficacy ([6]; same amount as SN-38, colon, head and neck, pancreatic cancer) was “stronger tumor regression efficacy than SN-38”. For the same molecule, the xenograft efficacy ([6]; versus SN-38 in various cancer cell line Xenograft models) was “superior efficacy compared to SN-38”, the “DDX5 degradation mechanism of action” value (DDX5 protein) was “directly binds to the tumor protein DDX5” and the “accumulation in cancer tissue” value ([7]; immediately after administration) was “accumulates quickly in cancer tissue”. For the same molecule, the blood clearance ([7]; systemic administration alone) was “rapidly metabolized and excreted from the blood”, the “sensitivity of DDX5 KO cells” value (PDAC cells with DDX5 KO) was “resistant” and the “sensitivity to ABCG2” value (ABCG2) was “not affected by the ABCG2 Transporter”. For the same molecule, the DDX5 degradation ranking (FaDu cell line) was “superior to other substances”.
